Measurements reported in ChEMBL document CHEMBL3301546, “MMV Malaria Box yeast growth screening”.

Legend:
Assay type in all cases: functional
[1] = system: Saccharomyces cerevisiae; experiment: (§1) MMV: Growth assays were conducted using the prototrophic S. cerevisiae strain JHY222. Each MMV compound (0.1 mM) was tested in rich media containing dextrose as a carbon source (Yeast Extract, Peptone, Dextrose; YPD). The growth rate in the presence of each MMV compound was calculated as follows: (i) the first 10 OD readings were averaged and subtracted from all OD readings of the corresponding curve to set the baseline of the growth curve to zero, and (ii) the area under the curve (AUC) was then calculated as the sum of all OD readings. […] A relative growth value was calculated as follows: AUC(DRUG) - AUC(DMSO)/AUC(DMSO); where AUC(DMSO) represents growth measured in a DMSO control well that was on the same microtiter plate of the drug-treated culture.
[2] = system: Saccharomyces cerevisiae; experiment: as §1, with “minimal” for “rich”, “Nitrogen Base,” for “Extract, Peptone,”, “YNBD).” for “YPD).”
[3] = system: Saccharomyces cerevisiae; experiment: as §1, with “minimal” for “rich”, “ethanol and glycerol” for “dextrose”, “as” for “as a”, “sources” for “source”, “Nitrogen Base, Ethanol, Glycerol; YNBEG).” for “Extract, Peptone, Dextrose; YPD).”

CN(C)CCCNc1c2ccccc2nc2ccccc12
Relative Growth [1]: 0.0036
Relative Growth [2]: -0.0065
Relative Growth [3]: 0.0887

CSC1=NC(=Nc2c(C)cccc2C)C2(CCC(C(C)(C)C)CC2)N1c1ccc(Cl)cc1 (stereo not drawn)
Relative Growth [1]: -0.0962
Relative Growth [2]: 0.0233
Relative Growth [3]: 0.0048

Cc1cc(C)cc(Nc2cc(C)nc3nc(C(F)(F)F)nn23)c1
Relative Growth [1]: -0.0343
Relative Growth [2]: 0.0866
Relative Growth [3]: -0.0322

O=C(NCC(c1ccsc1)N1CCCCCC1)c1ccc(C(F)(F)F)cc1 (stereo not drawn)
Relative Growth [1]: -0.0232
Relative Growth [2]: 0.0719
Relative Growth [3]: 0.0335

COc1ccc(-c2cc3c(SCC(=O)Nc4cc(C(F)(F)F)ccc4Cl)nccn3n2)cc1
Relative Growth [1]: -0.0822
Relative Growth [2]: 0.0829
Relative Growth [3]: -0.1809

Cc1ccc(-c2cc3c(SCC(=O)Nc4cc(C(F)(F)F)ccc4Cl)nccn3n2)cc1
Relative Growth [1]: 0.0079
Relative Growth [2]: 0.117
Relative Growth [3]: -0.0739

CCN(CC)CCNc1ncnc2c1[nH]c1ccc(Cl)cc12
Relative Growth [1]: -0.0494
Relative Growth [2]: 0.0885
Relative Growth [3]: 0.0317

CCOC(=O)c1cnc2ccc(CC)cc2c1O
Relative Growth [1]: -0.243
Relative Growth [2]: 0.0544
Relative Growth [3]: -0.0424

CCCCCC(=O)N1c2ccccc2N=C2CC(c3ccc(OC)c(OC)c3)CC(O)=C2C1c1ccc(C(F)(F)F)cc1 (stereo not drawn)
Relative Growth [1]: -0.0291
Relative Growth [2]: 0.1507
Relative Growth [3]: 0.0121

COc1ccc(-c2nc(NC(=O)CS(=O)(=O)c3ccc(F)cc3)sc2C)cc1
Relative Growth [1]: 0.0127
Relative Growth [2]: 0.0372
Relative Growth [3]: 0.1484

CCc1c(C)c(=N)c2ccccc2n1C.I
Relative Growth [1]: -0.0391
Relative Growth [2]: 0.0986
Relative Growth [3]: 0.0462

COc1cccc(NC(=O)[C@H](C(C)C)n2c(=O)[nH]c3ccccc3c2=O)c1
Relative Growth [1]: 0.0157
Relative Growth [2]: -0.0427
Relative Growth [3]: 0.0015

CCC(c1ccccc1)c1nn2c(-c3cccs3)nnc2s1 (stereo not drawn)
Relative Growth [1]: -0.0182
Relative Growth [2]: 0.0181
Relative Growth [3]: 0.1287

CC(C)(C)c1ccc(O)c(CNC2CCCCC2)c1
Relative Growth [1]: -0.013
Relative Growth [2]: 0.1031
Relative Growth [3]: -0.0737

CC1CN(C(=O)c2sc3ccccc3c2Cl)CC(C)O1 (stereo not drawn)
Relative Growth [1]: -0.0005
Relative Growth [2]: 0.0985
Relative Growth [3]: -0.1107

CN(C)c1ccc(C=Cc2nc(=O)c3ccccc3o2)cc1
Relative Growth [1]: -0.0054
Relative Growth [2]: -0.0045
Relative Growth [3]: 0.0299

COc1ccc(C2=C(c3ccc(OC)cc3)C3(c4ccccc4)C(=O)C2(c2ccccc2)C2C(=O)N(c4ccc(C)cc4)C(=O)C23)cc1 (stereo not drawn)
Relative Growth [1]: 0.0057
Relative Growth [2]: -0.018
Relative Growth [3]: -0.0687

CCC1(C)CC(CCNCc2ccccc2O)(c2ccc(C)cc2)CCO1 (stereo not drawn)
Relative Growth [1]: 0.0044
Relative Growth [2]: 0.0584
Relative Growth [3]: 0.156

OC(CNC1CCCCC1)Cn1c2ccccc2c2ccccc21 (stereo not drawn)
Relative Growth [1]: -0.0297
Relative Growth [2]: 0.0533
Relative Growth [3]: 0.1093

Cc1cc(Nc2ccc(C)c(Cl)c2)n2nc(C(F)(F)F)nc2n1
Relative Growth [1]: -0.0311
Relative Growth [2]: 0.1169
Relative Growth [3]: -0.6431

COc1cccc(C=Cc2nc(=O)c3ccccc3o2)c1OC
Relative Growth [1]: -0.0201
Relative Growth [2]: 0.0576
Relative Growth [3]: -0.4404

CCCN(CCC)CC(O)COc1ccccc1C(=O)Nc1ccccc1 (stereo not drawn)
Relative Growth [1]: -0.0395
Relative Growth [2]: 0.0118
Relative Growth [3]: 0.0655

Fc1ccc2[nH]c3c(NCCCN4CCOCC4)ncnc3c2c1
Relative Growth [1]: -0.0189
Relative Growth [2]: 0.0125
Relative Growth [3]: 0.0735

COc1ccc(C(=O)Nc2nonc2-c2ccc(OC)c(OC)c2)cc1Cl
Relative Growth [1]: -0.0037
Relative Growth [2]: 0.1144
Relative Growth [3]: 0.0586

COc1ccc(C=C2SC(=N)N(c3ccccc3OC)C2=O)cc1
Relative Growth [1]: -0.083
Relative Growth [2]: -0.0085
Relative Growth [3]: -0.0639

CC(NCc1ccccc1)c1cc(Cl)ccc1O (stereo not drawn)
Relative Growth [1]: -0.0386
Relative Growth [2]: 0.042

COc1ccc(NC(=O)C2c3ccccc3C(=O)N(CC(C)C)C2c2cccs2)cc1Cl (stereo not drawn)
Relative Growth [1]: -0.1808
Relative Growth [2]: 0.0154
Relative Growth [3]: -0.0036

COc1ccc2c(c1)OC(O)(C(F)(F)C(F)(F)F)CC2=O (stereo not drawn)
Relative Growth [1]: 0.0151
Relative Growth [2]: 0.1423
Relative Growth [3]: -0.103

C=CC12CCN(CC1)C(C(O)c1ccnc3ccc(OC)cc13)C2.Cl (stereo not drawn)
Relative Growth [1]: -0.0044
Relative Growth [2]: 0.1593
Relative Growth [3]: 0.1178

Cc1ccc(-c2cc3nc4c(c(O)n3n2)CCCC4)cc1
Relative Growth [1]: -0.3245
Relative Growth [2]: -1.0172
Relative Growth [3]: -1.0646

COc1ccccc1CNC(=O)CCn1c(=O)[nH]c2ccccc2c1=O
Relative Growth [1]: -0.0038
Relative Growth [2]: 0.0763
Relative Growth [3]: 0.058

CCCc1cc(O)c2c3c(c(=O)oc2c1)CN(C)CC3
Relative Growth [1]: -0.0062
Relative Growth [2]: -0.0292
Relative Growth [3]: -0.0215

Cc1cc(NC(=O)C2c3ccccc3C(=O)N(CC(C)C)C2c2cccs2)no1 (stereo not drawn)
Relative Growth [1]: -0.03
Relative Growth [2]: -0.0434
Relative Growth [3]: -0.0882

Cl.Oc1ccccc1CNCC12CC3CC(CC(C3)C1)C2
Relative Growth [1]: -0.0154
Relative Growth [2]: 0.0701
Relative Growth [3]: 0.0858

COc1ccccc1CNC(=O)CCn1c(=O)[nH]c2ccsc2c1=O
Relative Growth [1]: -0.0638
Relative Growth [2]: 0.2472
Relative Growth [3]: -0.0445

COc1ccc(Br)cc1C1Nc2ccc3ccccc3c2C2=C1C(=O)CC(c1ccccc1)C2 (stereo not drawn)
Relative Growth [1]: -0.0736
Relative Growth [2]: 0.0368
Relative Growth [3]: -0.105

CC1CCN(Cc2ccc(NC(=O)c3cc4ccc5cccnc5c4[nH]3)cc2)CC1
Relative Growth [1]: -0.0895
Relative Growth [2]: 0.121
Relative Growth [3]: -0.318

O=C(Nc1ccsc1C(=O)NC1CCCCC1)c1ccc(F)cc1
Relative Growth [1]: -0.9286
Relative Growth [2]: 0.1187

CCOc1ccc(-c2nonc2NC(=O)c2cccc(C)c2)cc1OCC
Relative Growth [1]: 0.0084
Relative Growth [2]: 0.0895
Relative Growth [3]: -0.1269

COc1ccc(-c2nc3cc(Cc4ccc5[nH]c(-c6ccc(OC)cc6)nc5c4)ccc3[nH]2)cc1
Relative Growth [1]: -0.0264
Relative Growth [2]: 0.0862
Relative Growth [3]: 0.0241

CCOC(=O)c1ccc2nc(-c3ccccc3)cc(O)c2c1
Relative Growth [1]: -0.0952
Relative Growth [2]: 0.1214
Relative Growth [3]: 0.0616

COc1ccc(C(C)=O)cc1N1C(=O)C2C(C1=O)C1(c3ccccc3)C(=O)C2(c2ccccc2)C(c2ccc(C)cc2)=C1c1ccc(C)cc1 (stereo not drawn)
Relative Growth [1]: -0.992
Relative Growth [2]: -0.0144
Relative Growth [3]: 0.0688

CCCCCCOC(=O)C1=C(C)NC(=O)NC1c1ccccc1F (stereo not drawn)
Relative Growth [1]: -0.0098
Relative Growth [2]: 0.2134
Relative Growth [3]: -0.2346

Cc1ccc(Nc2nc(NCCO)c3ccccc3n2)cc1C
Relative Growth [1]: -0.1142
Relative Growth [2]: 0.0139
Relative Growth [3]: 0.0228

COc1ccc(NC(=O)C2c3ccccc3C(=O)N(CC(C)C)C2c2cccs2)cc1 (stereo not drawn)
Relative Growth [1]: -0.1052
Relative Growth [2]: 0.0442
Relative Growth [3]: -0.1656
